According to patent US11180474B2 (BRISTOL-MYERS SQUIBB COMPANY, priority 2016, dated 2021):

What was measured:
[1] = biological target: T1, human TLR7 (Homo sapiens, UniProt Q9NYK1); assay: TLR7 inhibition reporter assay (HEK-Blue cells, SEAP reporter, gardiquimod stimulation); format: cell-based; conditions: HEK-Blue cells overexpressing human TLR7, gardiquimod 7.5 μM
T1 construct: host or cells: HEK-Blue cells
T1 sequence (Q9NYK1 27-1049): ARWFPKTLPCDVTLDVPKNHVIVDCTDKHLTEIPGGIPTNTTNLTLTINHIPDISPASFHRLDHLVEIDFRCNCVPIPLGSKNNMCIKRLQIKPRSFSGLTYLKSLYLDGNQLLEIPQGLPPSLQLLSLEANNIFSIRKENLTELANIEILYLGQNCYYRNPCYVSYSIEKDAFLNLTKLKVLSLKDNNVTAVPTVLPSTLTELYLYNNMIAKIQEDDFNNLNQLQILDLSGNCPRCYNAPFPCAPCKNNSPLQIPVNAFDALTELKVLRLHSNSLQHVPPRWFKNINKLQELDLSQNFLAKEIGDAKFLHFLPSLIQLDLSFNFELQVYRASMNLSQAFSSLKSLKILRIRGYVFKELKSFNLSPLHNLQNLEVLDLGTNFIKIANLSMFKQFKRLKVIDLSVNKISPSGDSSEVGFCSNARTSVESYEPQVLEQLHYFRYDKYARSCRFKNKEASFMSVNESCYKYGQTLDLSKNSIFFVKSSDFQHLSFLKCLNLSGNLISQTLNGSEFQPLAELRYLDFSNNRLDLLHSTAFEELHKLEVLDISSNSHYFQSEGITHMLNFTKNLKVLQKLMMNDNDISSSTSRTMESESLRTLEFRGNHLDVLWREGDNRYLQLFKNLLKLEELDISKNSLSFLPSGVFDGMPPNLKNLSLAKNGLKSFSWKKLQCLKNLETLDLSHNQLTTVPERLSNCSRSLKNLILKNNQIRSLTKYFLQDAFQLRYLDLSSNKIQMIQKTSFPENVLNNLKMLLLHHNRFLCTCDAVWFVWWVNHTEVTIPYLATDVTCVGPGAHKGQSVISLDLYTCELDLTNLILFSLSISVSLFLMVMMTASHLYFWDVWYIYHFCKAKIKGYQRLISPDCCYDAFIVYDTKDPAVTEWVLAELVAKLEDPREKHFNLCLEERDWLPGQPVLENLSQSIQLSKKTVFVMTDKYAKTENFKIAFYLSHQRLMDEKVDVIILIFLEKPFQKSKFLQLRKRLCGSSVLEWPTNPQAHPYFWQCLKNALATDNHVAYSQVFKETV
Summary of the method: (§1)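 SEAP readout via HEK-Blue Detection medium after 22 h at 37 °C, 5% CO2 defines inhibition, normalized between agonist-plus-DMSO wells and a reference inhibitor. Compound dose range 0.05 nM–50 μM; TLR7 cells at 15,000/well (gardiquimod), TLR8 at 20,000/well (R848).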

[2] = biological target: T2, human TLR8 (Homo sapiens, UniProt Q9NR97); assay: TLR8 inhibition reporter assay (HEK-Blue cells, SEAP reporter, R848 stimulation); format: cell-based; conditions: HEK-Blue cells overexpressing human TLR8, R848 15.9 μM
T2 construct: host or cells: HEK-Blue cells
T2 sequence (Q9NR97 27-1041): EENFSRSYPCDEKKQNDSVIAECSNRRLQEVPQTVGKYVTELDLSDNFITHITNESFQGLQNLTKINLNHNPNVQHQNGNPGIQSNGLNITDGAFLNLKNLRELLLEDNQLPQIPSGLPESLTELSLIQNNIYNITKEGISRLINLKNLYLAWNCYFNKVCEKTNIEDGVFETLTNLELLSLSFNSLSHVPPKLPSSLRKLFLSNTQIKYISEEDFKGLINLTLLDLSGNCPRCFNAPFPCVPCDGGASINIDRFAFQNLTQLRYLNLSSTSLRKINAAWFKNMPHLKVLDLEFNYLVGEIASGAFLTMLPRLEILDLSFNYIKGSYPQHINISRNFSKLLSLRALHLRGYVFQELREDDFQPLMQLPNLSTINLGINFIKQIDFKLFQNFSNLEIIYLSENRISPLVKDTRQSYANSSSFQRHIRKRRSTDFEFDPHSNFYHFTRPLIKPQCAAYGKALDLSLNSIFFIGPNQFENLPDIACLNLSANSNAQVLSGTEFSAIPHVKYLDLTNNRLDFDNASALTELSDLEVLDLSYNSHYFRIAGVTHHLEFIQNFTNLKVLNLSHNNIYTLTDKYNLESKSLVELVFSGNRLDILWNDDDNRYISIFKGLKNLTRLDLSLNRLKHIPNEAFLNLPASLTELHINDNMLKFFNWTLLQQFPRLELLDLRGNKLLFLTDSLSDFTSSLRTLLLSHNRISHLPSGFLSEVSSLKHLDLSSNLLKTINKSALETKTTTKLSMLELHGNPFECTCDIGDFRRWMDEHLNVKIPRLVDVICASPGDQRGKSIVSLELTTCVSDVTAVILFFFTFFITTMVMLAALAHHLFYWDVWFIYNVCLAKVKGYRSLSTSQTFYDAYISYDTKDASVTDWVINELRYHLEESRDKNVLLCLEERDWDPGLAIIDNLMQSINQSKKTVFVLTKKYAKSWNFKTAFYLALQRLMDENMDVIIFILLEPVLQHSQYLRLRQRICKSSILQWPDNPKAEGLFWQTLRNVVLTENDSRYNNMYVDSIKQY
Summary of the method: as §1

Structure (SMILES) | IC50 [1] [µM] | IC50 [2] [µM]
COc1ccc(-c2[nH]c3ccc(C4CCN(C(=O)CNC5CCC(C(C)(C)O)CC5)CC4)cc3c2C(C)C)cc1OC (stereo not drawn) [Example 245, 1-(4-(2-(3,4-dimethoxyphenyl)-3-isopropyl-1H-indol-5-yl)piperidin-1-yl)-2-((4-(2-hydroxypropan-2-yl)cyclohexyl)amino)ethan-1-one] | 0.026 | 0.026
COc1ccc(-c2[nH]c3ccc(C4CCN(C(=O)CN5CCN(CC(=O)NC(C)C)CC5)CC4)cc3c2C(C)C)cc1OC [Example 229, 2-(4-(2-(4-(2-(3,4-dimethoxyphenyl)-3-isopropyl-1H-indol-5-yl)piperidin-1-yl)-2-oxoethyl)piperazin-1-yl)-N-isopropylacetamide] | 0.025 | 0.043
CCC(CO)NCC(=O)N1CCC(c2ccc3[nH]c(-c4ccc(OC)c(OC)c4)c(C(C)C)c3c2)CC1 (stereo not drawn) [Example 233, 1-(4-(2-(3,4-dimethoxyphenyl)-3-isopropyl-1H-indol-5-yl)piperidin-1-yl)-2-((1-hydroxybutan-2-yl)amino)ethan-1-one] | 0.023 | 0.027
COc1ccc(-c2[nH]c3ccc(C4CCN(C(=O)CNC[C@@H](F)C(C)(C)O)CC4)cc3c2C(C)C)cc1OC [Example 251, (R)-1-(4-(2-(3,4-dimethoxyphenyl)-3-isopropyl-1H-indol-5-yl)piperidin-1-yl)-2-((2-fluoro-3-hydroxy-3-methylbutyl)amino) ethan-1-one] | 0.372 | 0.75
COc1ccc(-c2[nH]c3ccc(C4CCN(C(=O)CN[C@H]5CC[C@H](N)CC5)CC4)cc3c2C(C)C)cc1OC [Example 232, 2-(((1r,4r)-4-aminocyclohexyl)amino)-1-(4-(2-(3,4-dimethoxyphenyl)-3-isopropyl-1H-indol-5-yl)piperidin-1-yl)ethan-1-one] | 0.12 | 0.169
COc1ccc(-c2[nH]c3ccc(C4CCN(C(=O)CN5CCCN(C(C)=O)CC5)CC4)cc3c2C(C)C)cc1OC [Example 222, 2-(4-acetyl-1,4-diazepan-1-yl)-1-(4-(2-(3,4-dimethoxyphenyl)-3-isopropyl-1H-indol-5-yl)piperidin-1-yl)ethan-1-one] | 0.045 | 0.067
COc1ccc(-c2[nH]c3ccc(C4CCN(C(=O)CN5CCC(O)CC5)CC4)cc3c2C(C)C)cc1OC [Example 238, 1-(4-(2-(3,4-dimethoxyphenyl)-3-isopropyl-1H-indol-5-yl)piperidin-1-yl)-2-(4-hydroxypiperidin-1-yl) ethan-1-one] | 0.036 | 0.005
COc1ccc(-c2[nH]c3ccc(C4CCN(C(=O)CNC[C@H](O)CO)CC4)cc3c2C(C)C)cc1OC [Example 235, (S)-2-((2,3-dihydroxypropyl)amino)-1-(4-(2-(3,4-dimethoxyphenyl)-3-isopropyl-1H-indol-5-yl)piperidin-1-yl)ethan-1-one] | 0.015 | 0.039

Continued, values first:

IC50 [1] [µM] | IC50 [2] [µM] | Structure (SMILES)
1.2 | 0.554 | COc1ccc(-c2[nH]c3ccc(C4CCN(C(=O)CN5CCC[C@H](C(=O)N6CCN(Cc7ccc(Br)cc7)CC6)C5)CC4)cc3c2C(C)C)cc1OC [Example 294, (S)-2-(3-(4-(4-bromobenzyl)piperazine-1-carbonyl)piperidin-1-yl)-1-(4-(2-(3,4-dimethoxyphenyl)-3-isopropyl-1H-indol-5-yl)piperidin-1-yl)ethan-1-one]
0.038 | 0.033 | COc1ccc(-c2[nH]c3ccc(C4CCN(C(=O)CN5CCC[C@H](C(=O)N6CCCC6)C5)CC4)cc3c2C(C)C)cc1OC [Example 287, (S)-1-(4-(2-(3,4-dimethoxyphenyl)-3-isopropyl-1H-indol-5-yl)piperidin-1-yl)-2-(3-(pyrrolidine-1-carbonyl)piperidin-1-yl)ethan-1-one]
0.016 | 0.037 | COc1ccc(-c2[nH]c3ccc(C4CCN(CC(=O)NCCCO)CC4)cc3c2C(C)C)cc1OC [Example 277, 2-(4-(2-(3,4-dimethoxyphenyl)-3-isopropyl-1H-indol-5-yl)piperidin-1-yl)-N-(3-hydroxypropyl)acetamide]
0.026 | 0.022 | COc1ccc(-c2[nH]c3ccc(C4CCN(C(=O)CN5CCCC(C(=O)NC6CCN(C(C)C)CC6)C5)CC4)cc3c2C(C)C)cc1OC (single isomer, unassigned) [Example 280, 1-(2-(4-(2-(3,4-dimethoxyphenyl)-3-isopropyl-1H-indol-5-yl)piperidin-1-yl)-2-oxoethyl)-N-(1-isopropylpiperidin-4-yl)piperidine-3-carboxamide]
0.05 | 0.022 | COc1ccc(-c2[nH]c3ccc(C4CCN(C(=O)CN5CCC[C@H](C(=O)NCCNC(C)=O)C5)CC4)cc3c2C(C)C)cc1OC [Example 295, (S)—N-(2-acetamidoethyl)-1-(2-(4-(2-(3,4-dimethoxyphenyl)-3-isopropyl-1H-indol-5-yl)piperidin-1-yl)-2-oxoethyl) piperidine-3-carboxamide]
0.013 | 0.014 | COc1ccc(-c2[nH]c3ccc(C4CCN(C(=O)CN5CCC[C@H](C(=O)N6CCC(N(C)C)CC6)C5)CC4)cc3c2C(C)C)cc1OC [Example 289, (S)-1-(4-(2-(3,4-dimethoxyphenyl)-3-isopropyl-1H-indol-5-yl)piperidin-1-yl)-2-(3-(4-(dimethylamino)piperidine-1-carbonyl)piperidin-1-yl)ethan-1-one]
0.03 | 0.031 | COc1ccc(-c2[nH]c3ccc(C4CCN(C(=O)CN5CCC[C@@H](C(=O)N6CCCC6)C5)CC4)cc3c2C(C)C)cc1OC [Example 303, (R)-1-(4-(2-(3,4-dimethoxyphenyl)-3-isopropyl-1H-indol-5-yl)piperidin-1-yl)-2-(3-(pyrrolidine-1-carbonyl)piperidin-1-yl)ethan-1-one]
0.284 | 0.657 | COc1ccc(-c2[nH]c3ccc(C4CCN(C(=O)COC(C)C)CC4)cc3c2C(C)C)cc1OC [Example 314, 1-(4-(2-(3,4-dimethoxyphenyl)-3-isopropyl-1H-indol-5-yl)piperidin-1-yl)-2-isopropoxyethan-1-one]
0.039 | 0.025 | COc1ccc(-c2[nH]c3ccc(C4CCN(C(=O)CN5CCC[C@H](C(=O)N6CCN(C(C)=O)CC6)C5)CC4)cc3c2C(C)C)cc1OC [Example 284, (S)-2-(3-(4-acetylpiperazine-1-carbonyl)piperidin-1-yl)-1-(4-(2-(3,4-dimethoxyphenyl)-3-isopropyl-1H-indol-5-yl)piperidin-1-yl)ethan-1-one]
0.017 | 0.022 | COc1ccc(-c2[nH]c3ccc(C4CCN(CC(=O)N5CCCC(CO)C5)CC4)cc3c2C(C)C)cc1OC (stereo not drawn) [Example 275, 2-(4-(2-(3,4-dimethoxyphenyl)-3-isopropyl-1H-indol-5-yl)piperidin-1-yl)-1-(3-(hydroxymethyl)piperidin-1-yl)ethan-1-one]
